Experimental data as given in PubChem BioAssay (NCI).
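48-hour exposure; five concentrations; linearly interpolated endpoints. Here, GI50 denotes the concentration required for 50% inhibition of growth. TGI: concentration producing complete growth inhibition.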

How the values were obtained:
Assay in all cases: DTP human tumour cell line panel, 48 h
[1] = tested on: KM12 colon
[2] = tested on: HT29 colon
[3] = tested on: SW-620 colon
[4] = tested on: ACHN renal
[5] = tested on: TK-10 renal
[6] = tested on: SR leukemia
[7] = tested on: PC-3 prostate
[8] = tested on: UACC-62 melanoma
[9] = tested on: COLO 205 colon
[10] = tested on: NCI-H522 lung
[11] = tested on: NCI-H23 lung
[12] = tested on: U251 CNS
[13] = tested on: SK-MEL-5 melanoma
[14] = tested on: LOX IMVI melanoma
[15] = tested on: NCI-H460 lung
[16] = tested on: MDA-MB-435
[17] = tested on: CAKI-1 renal
[18] = tested on: SK-OV-3 ovarian
[19] = tested on: A549 NSCLC
[20] = tested on: SF-295 CNS
[21] = tested on: OVCAR-3 ovarian
[22] = tested on: HL-60(TB) leukemia
[23] = tested on: SN12C renal
[24] = tested on: SF-268 CNS
[25] = tested on: T-47D breast
[26] = tested on: K-562 leukemia
[27] = tested on: OVCAR-8 ovarian
[28] = tested on: UACC-257 melanoma

O=S(=O)(Nc1ccc(I)c(Cl)c1)c1ccc(-c2cnc(C3CC3)o2)cc1
GI50 [1]: 0.888 µM
TGI [1]: 12.4 µM
GI50 [2]: 0.994 µM
TGI [2]: 5.8 µM
GI50 [3]: 0.65 µM
TGI [3]: 13.4 µM
GI50 [4]: 3.03 µM
TGI [4]: 16.8 µM
GI50 [5]: 3.15 µM
TGI [5]: 17 µM
GI50 [6]: 0.317 µM
TGI [6]: 17.7 µM
GI50 [7]: 1.12 µM
TGI [7]: 11.7 µM
GI50 [8]: 0.475 µM
TGI [8]: 12.8 µM
GI50 [9]: 3.04 µM
TGI [9]: 15.6 µM
GI50 [10]: 0.557 µM
TGI [10]: 7.49 µM
GI50 [11]: 2.68 µM
TGI [11]: 14 µM
GI50 [12]: 1.53 µM
TGI [12]: 12.6 µM
GI50 [13]: 2.7 µM
TGI [13]: 13.1 µM
GI50 [14]: 2.64 µM
TGI [14]: 17.7 µM
GI50 [15]: 1.5 µM
TGI [15]: 10.2 µM
GI50 [16]: 0.259 µM
TGI [16]: 0.817 µM
GI50 [17]: 0.658 µM
TGI [17]: 14.9 µM
GI50 [18]: 3.35 µM
TGI [18]: 17.6 µM
GI50 [19]: 1.57 µM
TGI [19]: 12.7 µM
GI50 [20]: 0.362 µM
TGI [20]: 1.41 µM
GI50 [21]: 0.404 µM
TGI [21]: 2.89 µM
GI50 [22]: 0.461 µM
TGI [22]: 3.93 µM
GI50 [23]: 3.17 µM
TGI [23]: 15.2 µM
GI50 [24]: 3.15 µM
TGI [24]: 18.9 µM
GI50 [25]: 1.52 µM
TGI [25]: 16.2 µM
GI50 [26]: 0.456 µM
TGI [26]: 27.4 µM
GI50 [27]: 3.08 µM
TGI [27]: 15.3 µM
GI50 [28]: 3.74 µM
TGI [28]: 21.7 µM
